From patent US7423017B2, “Method for treating cartilage disorders” (Genentech, Inc., priority 1997, dated 2008)
One block for each compound: values may come before it. Positions of bridges follow the written chain, without caps; N, C: chain ends. Residues, ends and D or L forms follow the SMILES beside them. No end group written: not given here.

How the values were obtained:
IGFBP-3 [1] = target: T1, IGFBP-3 (Homo sapiens, UniProt P17936); assay: phage-ELISA competition assay of g3 peptide-phage clones; assay type: binding; conditions: g3 monovalent display
T1 construct: made in house
From the text: A third clone, 3Ai.2, represents a new peptide sequence that was not identified from g8 display.

IGFBP-1 [2] = target: T2, IGFBP-1 (Homo sapiens, UniProt P08833); assay: BIAcore competition assay: IGFBP-1 binding to IGF-I; parameters: made in house; host or cells: CHO cells; conditions: for Fold potency reduction IC50 (BP1-01) / IC50 (mut): locked-helix variants
T2 sequence (P08833 26-259): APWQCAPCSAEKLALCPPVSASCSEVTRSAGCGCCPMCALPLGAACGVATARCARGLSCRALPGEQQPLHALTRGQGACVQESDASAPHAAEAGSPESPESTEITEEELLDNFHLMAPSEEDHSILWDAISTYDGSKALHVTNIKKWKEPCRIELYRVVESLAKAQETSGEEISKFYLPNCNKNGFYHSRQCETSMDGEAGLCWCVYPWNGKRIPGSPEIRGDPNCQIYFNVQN
Experimental: Two series of synthetic peptide variants were generated to determine which side chains of the BP1-01 peptide might contribute directly to binding IGFBP-1. In the first series an alanine-scanning approach (Cunningham and Wells, Science, 244: 1081-1085 (1989)) was used to remove that portion of each side chain beyond the beta carbon. The contribution of these atoms to the free energy of binding of the peptide to IGFBP-1 was then assessed by measuring the potency (IC50) of the variant for inhibiting IGFBP-1 binding to IGF-I or IGF-II in a BIAcore™ competition assay, analogous to that described for IGFBP-3.
Peptides were assayed in a BIAcore™ assay as described in WO 98/45427, supra. These inhibition assays (FIG. 35) compared the relative potency of these peptides for blocking the interaction of IGFBP-1 with IGF-1.
The peptide BP1-625 fraction was lyophilized and resuspended in 100 mM HEPES buffer, pH 7.2.

IGFBP-1 [3] = target: T2, IGFBP-1; assay: KIRA cell-based assay of IGF-like activity displaced by peptides from IGF-1/IGFBP-1; conditions: 2 nM IGF-1, […] IGFBP-1
Experimental: A cell-based (KIRA) assay was previously described for measuring the amount of IGF-like activity displaced by peptides from mixtures of IGF-1 and binding proteins (Lowman et al., supra, 1998; WO 98/45427, supra). The KIRA assay was used to compare in vitro bioactivity of BP1-16, BP1-02, BP1-25, and BP1-40. […] IGF-1 and peptide were mixed and added to cells expressing IGF receptor for 30 min, then IGFBP-1 was added for an additional 1 h.

IGFBP-1 [4] = target: T2, IGFBP-1; assay: BIAcore direct binding kinetics of peptides on immobilized IGFBP-1; parameters: made in house; host or cells: CHO cells; conditions: for Kd: koff/kon, BIAcore kinetics, read-out: KD ± (SD or SE)
From the text: WO 98/45427 published Oct. 15, 1998 discloses the preparation and characterization of the IGFBP-1 displacer peptide BP1-01 ([…]) (SEQ ID NO:26). The kinetics of BP1-01 peptide variants were examined in a BIAcore™ (BIAcore, Inc., Piscataway, N.J.) assay using IGFBP-1 covalently coupled via EDC/NHS (as described by the manufacturer) to a dextran chip. […] The latter implies a half-life for peptide dissociation from IGFBP-1 of approximately 28 sec. The association rate constant is moderately fast, consistent with the notion that the peptide may not undergo significant conformation change upon binding to IGFBP-1.
Inhibition assays for measuring relative potencies of peptides for inhibiting IGFBP-1 binding to IGF-I have been described (e.g., WO 98/45427, supra). Peptides described herein were of sufficient binding affinity to allow for direct measurement of binding affinities by surface plasmon resonance (SPR) using a BIACORE™ system. The direct binding kinetics of IGFBP-1 peptides were measured by injecting a series of 2-fold diluted peptides in running buffer (0.05% TWEEN 20™ in PBS) over a carboxy-methyl (CM) biosensor chip coupled with about 590-1000 RU of IGFBP-1 at a flow rate of 50 μl/min on a BIACORE 2000™ or BIACORE 3000™ surface-plasmon-resonance instrument. The immobilization of IGFBP-1 was performed through EDC/NHS chemistry as described by the manufacturer. Peptides were also injected through a flow cell containing IGFBP-3 as background control. Since the off-rate for most of the peptides is relatively fast (in the range of 2×10^−2 s^−1), off-rate measurement was set for 30 minutes. This allowed for regeneration of IGFBP-1 on the chip by simple dissociation, rather than by addition of eluent. For each dilution of peptides, a global fit of the sensorgram data was performed using a 1:1 Langmuir binding model.

IGFBP-3 [5] = target: T1, IGFBP-3; assay: IGF-1 blocking phage assay: peptide-phage binding to coated IGFBP-3 with/without IGF-1; conditions: 100 nM IGF-1; 50-fold dilution of phage
Experimental: IGFBP-3 was coated directly onto MAXISORP198 plates as above. Phage from clonal cultures were mixed with IGF-1 (100 nM final concentration), and incubated with the immobilized IGFBP-3 for 1 hour at room temperature. The plates were then washed ten times, as above, and a solution of rabbit anti-phage antibody mixed with a goat-anti-rabbit conjugate of horseradish peroxidase was added. After an incubation of 1 hour at room temperature, the plates were developed with a chromogenic substrate, o-phenylenediamine (Sigma). The reaction was stopped with addition of ½ volume of 2.5 M H2SO4. Optical density at 490 nm was measured on a spectrophotometric plate reader.
In each case, the phagemid clone was grown from a single colony overnight at 37° C. in a culture volume of 5 ml. The phage particles were precipitated and resuspended in 0.5 ml of PBS buffer. A 50-fold dilution of each phage solution was made into PBS/TWEEN™ buffer, and the phage were incubated with or without 100 nM IGF-1 on an IGFBP-3-coated MAXISORP™ plate.
In each case, the phagemid clone was grown from a single colony overnight at 37° C. in a culture volume of 5 ml. The phage particles were prepared as described above.

T1 sequence (P17936 28-291): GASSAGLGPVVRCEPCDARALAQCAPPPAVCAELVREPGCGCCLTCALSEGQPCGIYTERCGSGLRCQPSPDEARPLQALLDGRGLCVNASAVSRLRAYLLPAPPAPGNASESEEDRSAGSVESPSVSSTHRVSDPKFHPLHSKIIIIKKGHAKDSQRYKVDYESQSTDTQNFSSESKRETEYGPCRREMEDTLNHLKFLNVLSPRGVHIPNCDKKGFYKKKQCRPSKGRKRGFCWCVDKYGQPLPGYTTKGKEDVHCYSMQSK

apparent affinity in phage-ELISA competition assays (IGFBP-3 [1]): < 100 nM
Compound: VAWEVCWDRHDQGYICTTDS [g3-4D3.11]

Fold potency reduction IC50 (BP1-01) / IC50 (mut) (IGFBP-1 [2]): 8
Compound: acRPLEWLAEKYFE (Ac-RPLEWLAEKYFE; bridge 4-12) [(i + 8)B]

improved potency over BP1-01 (IGFBP-1 [2]; 9-10 nM IGFBP-1): about 20 fold
Compound: GQQSCAAGPLQWLCEHYFSTYGR (disulfide 5-14 (inferred)) [BP1-625]

Fold potency reduction IC50 (BP1-01) / IC50 (mut) (IGFBP-1 [2]): 6
Compound: acRAGPLEWLAEKYFE (Ac-RAGPLEWLAEKYFE; bridge 6-14; not fully specified) [(i + 8)C]

Fold potency reduction IC50 (BP1-01) / IC50 (mut) (IGFBP-1 [2]): >200
Compound: acLEWLAEKYFE (Ac-LEWLAEKYFE; bridge 2-10) [(i + 8)A]

Compound: CC(C)C[C@@H]1NC(=O)[C@H](Cc2c[nH]c3ccccc23)NC(=O)[C@H](CCC(N)=O)NC(=O)[C@H](CC(C)C)NC(=O)[C@@H]2CCCN2C(=O)CNC(=O)[C@H](C)NC(=O)[C@H](CCCNC(=N)N)NC(=O)[C@@H](NC(=O)[C@H](CO)NC(=O)[C@H](CCC(N)=O)NC(=O)[C@H](CCC(N)=O)NC(=O)CN)CSSC[C@@H](C(=O)N[C@@H](CCC(=O)O)C(=O)N[C@@H](CCCCN)C(=O)N[C@@H](Cc2ccc(O)cc2)C(=O)N[C@@H](Cc2ccccc2)C(=O)N[C@@H](CO)C(=O)N[C@H](C(=O)N[C@@H](Cc2ccc(O)cc2)C(=O)O)[C@@H](C)O)NC1=O [BP1-40] (H-GQQSCRAGPLQWLCEKYFSTY-OH; disulfide 5-14; N-terminus and C-terminus assumed)
EC20 (concentration at which 20% of maximal IGF-1 activity is observed) (IGFBP-1 [3]): 10 to 20 nM | Kd (IGFBP-1 [4]): 27 ± 21 nM

inhibited for binding to IGFBP-3 (phage clone with vs without IGF-1) (IGFBP-3 [5]): about 20%
Compound: SGGAIYWPVEQFIAFMAVGK [23A3.3]

IGF-I Inhibition IC50 (114)/IC50 (mut) (IGFBP-1 [2]; relative to BP1-14): 3 | Kd (IGFBP-1 [4]): 41 ± 17 nM
Compound: CC(C)C[C@@H]1NC(=O)[C@H](Cc2c[nH]c3ccccc23)NC(=O)[C@H](CCC(N)=O)NC(=O)[C@H](CC(C)C)NC(=O)[C@@H]2CCCN2C(=O)CNC(=O)[C@H](C)NC(=O)[C@H](CCCNC(=N)N)NC(=O)[C@@H](NC(=O)CNC(=O)[C@@H](NC(=O)[C@H](CCC(=O)O)NC(=O)[C@@H](N)CO)C(C)C)CSSC[C@@H](C(=O)N[C@@H](CCC(=O)O)C(=O)N[C@@H](CCCCN)C(=O)N[C@@H](Cc2ccc(O)cc2)C(=O)N[C@@H](Cc2ccccc2)C(=O)N[C@@H](CO)C(=O)N[C@H](C(=O)N[C@@H](Cc2ccc(O)cc2)C(N)=O)[C@@H](C)O)NC1=O [BP1-21A] (H-SEVGCRAGPLQWLCEKYFSTY-NH2; disulfide 5-14; N-terminus assumed)

inhibited for binding to IGFBP-3 (phage clone with vs without IGF-1) (IGFBP-3 [5]): 5%
Compound: VAWEVCWDRHDQGYICTTDS [4D3.11]

apparent affinity in phage-ELISA competition assays (IGFBP-3 [1]): < 100 nM
Compound: EESECFEGPGYVICGLVG [g3-4B3.3]

Fold potency reduction IC50 (BP1-01) / IC50 (mut) (IGFBP-1 [2]): 8
Compound: acRAGPLEWLAEKYEG (Ac-RAGPLEWLAEKYEG; bridge 6-13; not fully specified) [(i + 7)D]

inhibited for binding to IGFBP-3 (phage clone with vs without IGF-1) (IGFBP-3 [5]): about 20%
Compound: SGGAIYMPVEQFIAFMAVGK [23A3.5]

Compound: CC(C)C[C@@H]1NC(=O)[C@H](Cc2c[nH]c3ccccc23)NC(=O)[C@H](CCC(N)=O)NC(=O)[C@H](CC(C)C)NC(=O)[C@@H]2CCCN2C(=O)CNC(=O)[C@H](C)NC(=O)[C@H](CCCNC(=N)N)NC(=O)[C@@H](NC(=O)CNC(=O)[C@@H](NC(=O)[C@H](CCC(=O)O)NC(=O)[C@@H](N)CO)C(C)C)CSSC[C@@H](C(=O)N[C@@H](CCC(=O)O)C(=O)N[C@@H](CCCCN)C(=O)N[C@@H](Cc2ccc(O)cc2)C(=O)N[C@@H](Cc2ccccc2)C(=O)NCC(=O)O)NC1=O [BP1-02] (H-SEVGCRAGPLQWLCEKYFG-OH; disulfide 5-14; N-terminus and C-terminus assumed)
EC20 (concentration at which 20% of maximal IGF-1 activity is observed) (IGFBP-1 [3]): 150 to 200 nM | half-life for peptide dissociation from IGFBP-1 (IGFBP-1 [4]): approximately 28 sec | Kd (IGFBP-1 [4]): 210 ± 46 nM | kon (IGFBP-1 [4]; peptide on immobilized IGFBP-1, read-out: association rate constant): 230000 M⁻¹ s⁻¹

Compound: CC(C)C[C@@H]1NC(=O)[C@H](Cc2c[nH]c3ccccc23)NC(=O)[C@H](CCC(N)=O)NC(=O)[C@H](CC(C)C)NC(=O)[C@@H]2CCCN2C(=O)CNC(=O)[C@H](C)NC(=O)[C@H](CCCNC(=N)N)NC(=O)[C@@H](NC(=O)[C@@H](NC(=O)[C@H](CCCNC(=N)N)NC(=O)[C@H](C)NC(=O)[C@@H](N)CCC(=O)O)C(C)C)CSSC[C@@H](C(=O)N[C@@H](CCC(=O)O)C(=O)N[C@@H](CCCCN)C(=O)N[C@@H](Cc2ccc(O)cc2)C(=O)N[C@@H](Cc2ccccc2)C(=O)N[C@@H](CO)C(=O)N[C@H](C(=O)N[C@@H](Cc2ccc(O)cc2)C(=O)O)[C@@H](C)O)NC1=O [BP1-25] (H-EARVCRAGPLQWLCEKYFSTY-OH; disulfide 5-14; N-terminus and C-terminus assumed)
EC20 (concentration at which 20% of maximal IGF-1 activity is observed) (IGFBP-1 [3]): 10 to 20 nM | Kd (IGFBP-1 [4]): 42 ± 11 nM

Fold potency reduction IC50 (BP1-01) / IC50 (mut) (IGFBP-1 [2]): 1
Compound: CC(C)C[C@@H]1NC(=O)[C@H](Cc2c[nH]c3ccccc23)NC(=O)[C@H](CCC(N)=O)NC(=O)[C@H](CC(C)C)NC(=O)[C@@H]2CCCN2C(=O)CNC(=O)[C@H](C)NC(=O)[C@H](CCCNC(=N)N)NC(=O)[C@@H](N)CSSC[C@@H](C(=O)N[C@@H](CCC(=O)O)C(=O)N[C@@H](CCCCN)C(=O)N[C@@H](Cc2ccc(O)cc2)C(=O)N[C@@H](Cc2ccccc2)C(=O)NCC(N)=O)NC1=O [BP1-01] (H-CRAGPLQWLCEKYFG-NH2; disulfide 1-10)
